Reference: publication PMC10041525, “New Dual Inhibitors of Bacterial Topoisomerases with Broad-Spectrum Antibacterial Activity and In Vivo Efficacy against Vancomycin-Intermediate Staphylococcus aureus” (Journal of Medicinal Chemistry, 2023)
Converted amounts (≈) assume the structure as drawn. Where two headings read alike, the source gives them in different places.

How the values were obtained:
Type in all cases: cell-based
P. aeruginosa ATCC 27853 = experiment: IHMA QC MIC; details: for MIC: Pseudomonas aeruginosa
S. pneumoniae (n = 12) = experiment: MIC broth microdilution at IHMA Europe; details: for MIC: Streptococcus pneumoniae, read-out: MIC
E. faecium (n = 13) = experiment: MIC broth microdilution at IHMA Europe; details: for MIC: Enterococcus faecium, read-out: MIC
[1] = tested on: 100 A. baumannii strains (50 MDR, 50 non-MDR); experiment: MIC broth microdilution at IHMA Europe, panel of 100 strains; details: Acinetobacter baumannii, read-out: MIC

In the case of Cc1[nH]c(C(=O)Nc2nc3c(N4[C@@H]5CC[C@H]4COC5)cc(C(=O)O)cc3s2)c(Cl)c1Cl [7h, 4-((1R,5S)-3-Oxa-8-azabicyclo[3.2.1]octan-8-yl)-2-(3,4-dichloro-5-methyl-1H-pyrrole-2-carboxamido)benzo[d]thiazole-6-carboxylic Acid], the “MIC (QC, repeated tests)” value (P. aeruginosa ATCC 27853) is reported as 4 µg/mL (≈ 8.31 µM), the MIC (P. aeruginosa ATCC 27853; ATCC27853, QC strain P. aeruginosa ATCC 27853, test date 2021-11-11) is reported as 16 µg/mL (≈ 33.2 µM) and the MIC (P. aeruginosa ATCC 27853; ATCC27853, QC strain P. aeruginosa ATCC 27853, test date 2021-11-26) is reported as 8 µg/mL (≈ 16.6 µM). For the same compound, the MIC (P. aeruginosa ATCC 27853; ATCC27853, read-out: MIC (QC, repeated tests)) was 8 µg/mL (≈ 16.6 µM), the “Cumulative % at MIC” value (S. pneumoniae (n = 12); MIC 0.06 µg/mL) was 16.7% and the “Cumulative % at MIC” value (S. pneumoniae (n = 12); MIC 0.5 µg/mL) was 100.0%. For the same compound, the “Cumulative % at MIC” value (S. pneumoniae (n = 12); MIC […]) was 91.7%, the MIC (S. pneumoniae (n = 12); S. pneumoniae IHMA N° 1775387) was 0.25 µg/mL (≈ 0.519 µM) and the MIC (S. pneumoniae (n = 12); S. pneumoniae IHMA N° 1776057) was 0.5 µg/mL (≈ 1.04 µM). For the same compound, the MIC (S. pneumoniae (n = 12); S. pneumoniae IHMA N° 1785617) was 0.25 µg/mL (≈ 0.519 µM), the MIC (S. pneumoniae (n = 12); S. pneumoniae IHMA N° 1800765) was 0.25 µg/mL (≈ 0.519 µM) and the MIC (S. pneumoniae (n = 12); S. pneumoniae IHMA N° 1811259) was 0.06 µg/mL (≈ 0.125 µM). For the same compound, the MIC (S. pneumoniae (n = 12); S. pneumoniae IHMA N° 1831562) was 0.25 µg/mL (≈ 0.519 µM), the MIC (S. pneumoniae (n = 12); S. pneumoniae IHMA N° 1902609) was 0.25 µg/mL (≈ 0.519 µM) and the MIC (S. pneumoniae (n = 12); S. pneumoniae IHMA N° 1979675) was 0.25 µg/mL (≈ 0.519 µM). For the same compound, the MIC (S. pneumoniae (n = 12); S. pneumoniae IHMA N° 1991963) was 0.25 µg/mL (≈ 0.519 µM), the MIC (S. pneumoniae (n = 12); S. pneumoniae IHMA N° 2057487) was 0.25 µg/mL (≈ 0.519 µM) and the MIC (S. pneumoniae (n = 12); S. pneumoniae IHMA N° 2073087) was 0.25 µg/mL (≈ 0.519 µM). The MIC (S. pneumoniae (n = 12); S. pneumoniae IHMA N° 2117109) was 0.06 µg/mL (≈ 0.125 µM), the “MIC, all isolates” value (S. pneumoniae (n = 12); n = 12) was no more than 0.5 µg/mL and the MIC (E. faecium (n = 13); E. faecium IHMA N° 1764866) was no more than 0.03 µg/mL. For the same compound, the MIC (E. faecium (n = 13); E. faecium IHMA N° 1765436) was 0.06 µg/mL (≈ 0.125 µM), the MIC (E. faecium (n = 13); E. faecium IHMA N° 1765746) was no more than 0.03 µg/mL and the MIC (E. faecium (n = 13); E. faecium IHMA N° 1893573) was no more than 0.03 µg/mL. For the same compound, the MIC (E. faecium (n = 13); E. faecium IHMA N° 1893846) was 0.12 µg/mL (≈ 0.249 µM), the MIC (E. faecium (n = 13); E. faecium IHMA N° 1893942) was 0.06 µg/mL (≈ 0.125 µM) and the MIC (E. faecium (n = 13); E. faecium IHMA N° 1894055) was 0.06 µg/mL (≈ 0.125 µM). For the same compound, the MIC (E. faecium (n = 13); E. faecium IHMA N° 1897027) was 0.06 µg/mL (≈ 0.125 µM), the MIC (E. faecium (n = 13); E. faecium IHMA N° 1897101) was no more than 0.03 µg/mL and the MIC (E. faecium (n = 13); E. faecium IHMA N° 1904592) was no more than 0.03 µg/mL. It also gave an MIC (E. faecium (n = 13); E. faecium IHMA N° 2075051) of 0.06 µg/mL (≈ 0.125 µM), an MIC (E. faecium (n = 13); E. faecium IHMA N° 2077718) of no more than 0.03 µg/mL and an MIC (E. faecium (n = 13); E. faecium IHMA N° 2083787) of no more than 0.03 µg/mL. For the same compound, the “Cumulative % at MIC” value (E. faecium (n = 13); MIC 0.06 µg/mL) was 92.3%, the “Cumulative % at MIC” value (E. faecium (n = 13); MIC […]) was 100.0% and the “Cumulative % at MIC” value (E. faecium (n = 13); MIC ≤0.03 µg/mL) was 53.8%. The “MIC, all isolates” value (E. faecium (n = 13); n = 13) was no more than 0.12 µg/mL, the MIC ([1]; A. baumannii IHMA 1769393, Lithuania 2018, Non-MDR) was 2 µg/mL (≈ 4.15 µM) and the MIC ([1]; A. baumannii IHMA 1769782, Israel 2018, MDR) was 2 µg/mL (≈ 4.15 µM). For the same compound, the MIC ([1]; A. baumannii IHMA 1769910, Israel 2018, Non-MDR) was 4 µg/mL (≈ 8.31 µM), the MIC ([1]; A. baumannii IHMA 1790317, Czech Republic 2018, Non-MDR) was 2 µg/mL (≈ 4.15 µM) and the MIC ([1]; A. baumannii IHMA 1790916, Romania 2018, Non-MDR) was 1 µg/mL (≈ 2.08 µM). For the same compound, the MIC ([1]; A. baumannii IHMA 1791877, Israel 2018, MDR) was 2 µg/mL (≈ 4.15 µM), the MIC ([1]; A. baumannii IHMA 1792961, Jordan 2018, MDR) was 2 µg/mL (≈ 4.15 µM) and the MIC ([1]; A. baumannii IHMA 1795669, Tunisia 2018, Non-MDR) was 1 µg/mL (≈ 2.08 µM). For the same compound, the MIC ([1]; A. baumannii IHMA 1814276, Lebanon 2018, MDR) was 2 µg/mL (≈ 4.15 µM), the MIC ([1]; A. baumannii IHMA 1815198, Kuwait 2018, MDR) was 2 µg/mL (≈ 4.15 µM) and the MIC ([1]; A. baumannii IHMA 1815856, Israel 2018, MDR) was 2 µg/mL (≈ 4.15 µM). It also gave an MIC ([1]; A. baumannii IHMA 1821468, South Africa 2018, Non-MDR) of 2 µg/mL (≈ 4.15 µM), an MIC ([1]; A. baumannii IHMA 1829500, Georgia 2018, Non-MDR) of 2 µg/mL (≈ 4.15 µM) and an MIC ([1]; A. baumannii IHMA 1830924, United Kingdom 2018, Non-MDR) of 4 µg/mL (≈ 8.31 µM). It also gave an MIC ([1]; A. baumannii IHMA 1849819, Kuwait 2018, MDR) of 4 µg/mL (≈ 8.31 µM), an MIC ([1]; A. baumannii IHMA 1849829, Kuwait 2018, Non-MDR) of 4 µg/mL (≈ 8.31 µM) and an MIC ([1]; A. baumannii IHMA 1857118, Slovenia 2018, Non-MDR) of 4 µg/mL (≈ 8.31 µM). For the same compound, the MIC ([1]; A. baumannii IHMA 1863631, France 2018, Non-MDR) was 2 µg/mL (≈ 4.15 µM), the MIC ([1]; A. baumannii IHMA 1870054, United States 2018, Non-MDR) was 2 µg/mL (≈ 4.15 µM) and the MIC ([1]; A. baumannii IHMA 1884428, Italy 2018, Non-MDR) was 4 µg/mL (≈ 8.31 µM). It also gave an MIC ([1]; A. baumannii IHMA 1884990, Germany 2018, Non-MDR) of 1 µg/mL (≈ 2.08 µM), an MIC ([1]; A. baumannii IHMA 1900538, Turkey 2018, Non-MDR) of 4 µg/mL (≈ 8.31 µM) and an MIC ([1]; A. baumannii IHMA 1913773, Kenya 2018, Non-MDR) of 2 µg/mL (≈ 4.15 µM). The MIC ([1]; A. baumannii IHMA 1926285, Qatar 2018, Non-MDR) was 2 µg/mL (≈ 4.15 µM), the MIC ([1]; A. baumannii IHMA 1926288, Qatar 2018, MDR) was 1 µg/mL (≈ 2.08 µM) and the MIC ([1]; A. baumannii IHMA 1957343, Portugal 2019, Non-MDR) was 4 µg/mL (≈ 8.31 µM). For the same compound, the MIC ([1]; A. baumannii IHMA 1963732, Turkey 2019, MDR) was 2 µg/mL (≈ 4.15 µM), the MIC ([1]; A. baumannii IHMA 1967860, Spain 2019, Non-MDR) was 8 µg/mL (≈ 16.6 µM) and the MIC ([1]; A. baumannii IHMA 1971673, Latvia 2019, MDR) was 2 µg/mL (≈ 4.15 µM). For the same compound, the MIC ([1]; A. baumannii IHMA 1975075, Israel 2019, Non-MDR) was 2 µg/mL (≈ 4.15 µM), the MIC ([1]; A. baumannii IHMA 1977077, Kuwait 2019, Non-MDR) was 4 µg/mL (≈ 8.31 µM) and the MIC ([1]; A. baumannii IHMA 1983151, Greece 2019, MDR) was 2 µg/mL (≈ 4.15 µM). The MIC ([1]; A. baumannii IHMA 1984665, Lithuania 2019, MDR) was 2 µg/mL (≈ 4.15 µM), the MIC ([1]; A. baumannii IHMA 1986678, Turkey 2019, Non-MDR) was 4 µg/mL (≈ 8.31 µM) and the MIC ([1]; A. baumannii IHMA 1986738, Turkey 2019, MDR) was 2 µg/mL (≈ 4.15 µM). For the same compound, the MIC ([1]; A. baumannii IHMA 1987162, Croatia 2019, MDR) was 2 µg/mL (≈ 4.15 µM), the MIC ([1]; A. baumannii IHMA 1993615, Turkey 2019, MDR) was 1 µg/mL (≈ 2.08 µM) and the MIC ([1]; A. baumannii IHMA 1994284, Italy 2019, MDR) was 2 µg/mL (≈ 4.15 µM). For the same compound, the MIC ([1]; A. baumannii IHMA 1995161, Czech Republic 2019, Non-MDR) was 2 µg/mL (≈ 4.15 µM), the MIC ([1]; A. baumannii IHMA 1997936, Morocco 2019, Non-MDR) was 2 µg/mL (≈ 4.15 µM) and the MIC ([1]; A. baumannii IHMA 1999178, Belgium 2019, Non-MDR) was 2 µg/mL (≈ 4.15 µM). For the same compound, the MIC ([1]; A. baumannii IHMA 2003279, Turkey 2019, MDR) was 4 µg/mL (≈ 8.31 µM), the MIC ([1]; A. baumannii IHMA 2014367, Jordan 2019, Non-MDR) was 1 µg/mL (≈ 2.08 µM) and the MIC ([1]; A. baumannii IHMA 2014931, South Africa 2019, Non-MDR) was 4 µg/mL (≈ 8.31 µM). It also gave an MIC ([1]; A. baumannii IHMA 2019315, Romania 2019, Non-MDR) of 4 µg/mL (≈ 8.31 µM), an MIC ([1]; A. baumannii IHMA 2020360, Croatia 2019, MDR) of 2 µg/mL (≈ 4.15 µM) and an MIC ([1]; A. baumannii IHMA 2031511, Greece 2019, Non-MDR) of 1 µg/mL (≈ 2.08 µM). The MIC ([1]; A. baumannii IHMA 2031524, Greece 2019, MDR) was 2 µg/mL (≈ 4.15 µM) and the MIC ([1]; A. baumannii IHMA 2034657, Tunisia 2019, Non-MDR) was 4 µg/mL (≈ 8.31 µM).
